Test results reported in the NIST ThermoML archive (doi:10.1016/j.jct.2013.10.001).
“And” between values parts separate entries of the source, which are not always exact repeats. Identical values can stand only once.

Settings: Liquid

CC(C)CCCC(C)CCCC(C)CCCCC(C)CCCC(C)CCCC(C)C (stereo not given) [2,6,10,15,19,23-hexamethyltetracosane]
viscosity
Settings	Falling or rolling sphere viscometry	quartz resonator viscometer
293.15 K, 10220 kPa	–	45.8 mPa·s and 46.2 mPa·s
293.15 K, 20250 kPa	–	57.9 mPa·s and 58.5 mPa·s
293.15 K, 30090 kPa	–	70.8 mPa·s and 71.5 mPa·s
293.15 K, 40100 kPa	–	87 mPa·s and 87.9 mPa·s
293.15 K, 50070 kPa	–	108.1 mPa·s and 109.2 mPa·s
293.15 K, 60060 kPa	–	130 mPa·s and 131.3 mPa·s
293.15 K, 71000 kPa	–	160.4 mPa·s and 162.1 mPa·s
293.15 K, 80600 kPa	–	180.6 mPa·s and 182.4 mPa·s
303.15 K, 11300 kPa	–	28.6 mPa·s and 28.5 mPa·s
303.15 K, 19900 kPa	–	34.1 mPa·s and 34 mPa·s
303.15 K, 20000 kPa	34.78 mPa·s	–
303.15 K, 31400 kPa	–	43.9 mPa·s and 43.8 mPa·s
303.15 K, 40000 kPa	51.64 mPa·s	–
303.15 K, 40600 kPa	–	53 mPa·s and 52.9 mPa·s
303.15 K, 50900 kPa	–	64.7 mPa·s and 64.6 mPa·s
303.15 K, 60000 kPa	74.96 mPa·s	78.3 mPa·s and 78.1 mPa·s
303.15 K, 71700 kPa	–	94.7 mPa·s and 94.5 mPa·s
303.15 K, 80000 kPa	107.09 mPa·s	107.8 mPa·s and 107.5 mPa·s
303.15 K, 100000 kPa	146.47 mPa·s	–
303.15 K, 120000 kPa	210.53 mPa·s	–
303.15 K, 140000 kPa	305.4 mPa·s	–
303.15 K, 160000 kPa	422.48 mPa·s	–
313.15 K, 10000 kPa	16.8 mPa·s	–
313.15 K, 10110 kPa	–	18.2 mPa·s and 18.3 mPa·s
313.15 K, 15000 kPa	18.9 mPa·s	–
313.15 K, 20170 kPa	–	22.4 mPa·s and 22.6 mPa·s
313.15 K, 25000 kPa	23.8 mPa·s	–
313.15 K, 29620 kPa	–	26.6 mPa·s and 26.9 mPa·s
313.15 K, 40550 kPa	–	32.5 mPa·s and 32.8 mPa·s
313.15 K, 49650 kPa	–	38.5 mPa·s and 38.8 mPa·s
313.15 K, 50000 kPa	39.2 mPa·s and 36.3 mPa·s	–
313.15 K, 60500 kPa	–	47 mPa·s and 47.4 mPa·s
313.15 K, 70400 kPa	–	55.9 mPa·s and 56.4 mPa·s
313.15 K, 75000 kPa	61.2 mPa·s and 59.6 mPa·s	–
313.15 K, 80670 kPa	–	66.4 mPa·s and 66.9 mPa·s
313.15 K, 100000 kPa	92.3 mPa·s and 91.3 mPa·s	–
313.15 K, 125000 kPa	136.4 mPa·s and 134.8 mPa·s	–
313.15 K, 150000 kPa	199 mPa·s and 194.1 mPa·s	–
313.15 K, 175000 kPa	275.3 mPa·s	–
313.15 K, 200000 kPa	386.2 mPa·s	–
313.15 K, 225000 kPa	537.7 mPa·s	–
313.15 K, 250000 kPa	744.7 mPa·s	–
323.15 K, 10250 kPa	–	12.8 mPa·s and 12.7 mPa·s
323.15 K, 20000 kPa	15.77 mPa·s	–
323.15 K, 20340 kPa	–	15.5 mPa·s
323.15 K, 30170 kPa	–	18.4 mPa·s
323.15 K, 40000 kPa	22.36 mPa·s	–
323.15 K, 40160 kPa	–	21.8 mPa·s
323.15 K, 50130 kPa	–	25.8 mPa·s
323.15 K, 60000 kPa	31.17 mPa·s	–
323.15 K, 60110 kPa	–	30.8 mPa·s and 30.8 mPa·s
323.15 K, 70120 kPa	–	36.2 mPa·s
323.15 K, 80000 kPa	42.71 mPa·s	–
323.15 K, 80060 kPa	–	43 mPa·s
323.15 K, 100000 kPa	57.75 mPa·s	–
323.15 K, 120000 kPa	77.38 mPa·s	–
323.15 K, 140000 kPa	102.35 mPa·s	–
323.15 K, 160000 kPa	135.1 mPa·s	–
323.15 K, 180000 kPa	175.94 mPa·s	–
323.15 K, 200000 kPa	228.18 mPa·s	–
333.15 K, 9160 kPa	–	9 mPa·s
333.15 K, 19900 kPa	–	10.9 mPa·s
333.15 K, 30240 kPa	–	13 mPa·s and 13.1 mPa·s
333.15 K, 40000 kPa	–	15.3 mPa·s
333.15 K, 49340 kPa	–	17.7 mPa·s
333.15 K, 60990 kPa	–	21.4 mPa·s
333.15 K, 70280 kPa	–	25 mPa·s
333.15 K, 80900 kPa	–	28.5 mPa·s and 28.6 mPa·s
338.15 K, 50600 kPa	15.56 mPa·s	–
338.15 K, 102800 kPa	32.94 mPa·s	–
338.15 K, 150200 kPa	60.9 mPa·s	–
338.15 K, 198400 kPa	108.9 mPa·s	–
338.15 K, 249700 kPa	194 mPa·s	–
338.15 K, 272700 kPa	243.8 mPa·s	–
338.15 K, 299800 kPa	327.6 mPa·s	–
338.15 K, 349200 kPa	538.5 mPa·s and 531 mPa·s	–
343.15 K, 10000 kPa	7.3 mPa·s	–
343.15 K, 15000 kPa	8 mPa·s	–
343.15 K, 25000 kPa	9.4 mPa·s	–
343.15 K, 50000 kPa	13.6 mPa·s	–
343.15 K, 75000 kPa	19.2 mPa·s and 18.7 mPa·s	–
343.15 K, 100000 kPa	26.5 mPa·s and 27.2 mPa·s	–
343.15 K, 125000 kPa	36.2 mPa·s and 38.1 mPa·s	–
343.15 K, 150000 kPa	49.1 mPa·s and 52 mPa·s	–
343.15 K, 175000 kPa	69.9 mPa·s	–
343.15 K, 200000 kPa	92.8 mPa·s	–
343.15 K, 225000 kPa	122.1 mPa·s	–
343.15 K, 250000 kPa	159.6 mPa·s	–
348.15 K, 20000 kPa	7.45 mPa·s	–
348.15 K, 40000 kPa	10.15 mPa·s	–
348.15 K, 60000 kPa	13.51 mPa·s	–
348.15 K, 80000 kPa	17.79 mPa·s	–
348.15 K, 100000 kPa	23.08 mPa·s	–
348.15 K, 120000 kPa	29.61 mPa·s	–
348.15 K, 140000 kPa	37.63 mPa·s	–
348.15 K, 160000 kPa	48.09 mPa·s	–
348.15 K, 180000 kPa	60.38 mPa·s	–
348.15 K, 198300 kPa	70.83 mPa·s	–
348.15 K, 200000 kPa	74.91 mPa·s	–
348.15 K, 200400 kPa	72.63 mPa·s	–
348.15 K, 300600 kPa	202.9 mPa·s	–
348.15 K, 349800 kPa	327.6 mPa·s	–
363.15 K, 10200 kPa	4.36 mPa·s	–
363.15 K, 21000 kPa	5.15 mPa·s	–
363.15 K, 30900 kPa	5.97 mPa·s	–
363.15 K, 40700 kPa	6.84 mPa·s	–
363.15 K, 50600 kPa	7.82 mPa·s	–
363.15 K, 60600 kPa	8.94 mPa·s	–
363.15 K, 70700 kPa	10.18 mPa·s	–
363.15 K, 80600 kPa	11.49 mPa·s	–
363.15 K, 91000 kPa	13.06 mPa·s	–
363.15 K, 100000 kPa	14.59 mPa·s and 14.2 mPa·s	–
363.15 K, 120400 kPa	18.36 mPa·s	–
363.15 K, 125000 kPa	19.9 mPa·s	–
363.15 K, 150000 kPa	26.8 mPa·s	–
363.15 K, 150300 kPa	25.56 mPa·s	–
363.15 K, 175000 kPa	35.1 mPa·s	–
363.15 K, 200000 kPa	45 mPa·s	–
363.15 K, 200200 kPa	42.82 mPa·s	–
363.15 K, 225000 kPa	56.7 mPa·s	–
363.15 K, 225600 kPa	55.03 mPa·s	–
363.15 K, 246900 kPa	66.23 mPa·s	–
363.15 K, 250000 kPa	70.4 mPa·s	–
